From patent publication US20070015279A1, “Methods of Selecting Pancreatic Endocrine Cells Using Protein Synthesis Inhibitors” (AmCyte Inc., priority 2005, published 2007)

Assays:
HD522B P0 cells = experiment: G418 sulfate treatment of HD522B P0 cells, cell death and confluence; format: cell-based, human; settings: for Cell confluence (estimated): one week recovery
Procedure: (§1) HD522B P0 cells were cultured in M3 for 4 days; G418 sulfate in M3 at the following concentrations (μg/ml) was added to the culture: 0, 5, 25, 50, 100, 200, 500, and 1000. The cells were cultured in the presence of G418 sulfate for 48 h, switched to recovery medium (M3/ITS/LIF) for one week and harvested for quantitative RT-PCR analysis. The control group had to be harvested two days post recovery due to confluence. […] At lower dosages, cell death occurred between 1 and 3 days after switch to recovery medium. Cell proliferation could be observed during the recovery period in most of the conditions except in cultures containing 500 and 1000 μg/ml G418 sulfate. Cell confluence from each plate was estimated as following: 0 (100%), 5 (100%), 25 (95%), 50 (85%), 100 (50%), 200 (20%), 500 (less than 5%), 1000 (less than 2%). Approximately equal amount of cells from each plate were used for analysis based on the estimated confluences of each plate except the plates received 500 and 1000 μg/ml G418 sulfate treatment. The β-actin mRNA copy numbers have no significant variation in control group and cells received 5, 25, 50, and 100 μg/ml G418 whereas cells that received 200 to 1000 μg/ml G418 have much lower β-actin expression especially the 500 and 1000 μg/ml samples. This correlated well with the decreased cell confluence in these samples. The expression of endocrine gene markers increased as the concentration of G418 concentration increased to 100 μg/ml and decreased when G418 concentration is above 200 μg/ml. The expression of amylase, an exocrine marker, and nestin, a marker of mesenchymal cell, decreased as G418 concentration increased.

[1] = system: cultured adult human pancreatic cells; experiment: G418 sulfate treatment of HD522B P0 cells, marker mRNA by quantitative RT-PCR; format: cell-based
Procedure: as §1

In the case of geneticin sulfate [G418 Sulfate], the “Cell confluence (estimated)” value (HD522B P0 cells; 5 μg/ml 48 h) is reported as 100%, the “Cell confluence (estimated)” value (HD522B P0 cells; 25 μg/ml 48 h) is reported as 95% and the “Cell confluence (estimated)” value (HD522B P0 cells; 50 μg/ml 48 h) is reported as 85%. For the same substance, the “Cell confluence (estimated)” value (HD522B P0 cells; 100 μg/ml 48 h) was 50%, the “Cell confluence (estimated)” value (HD522B P0 cells; 200 μg/ml 48 h) was 20% and the “Cell confluence (estimated)” value (HD522B P0 cells; 500 μg/ml 48 h) was “less than 5%”. For the same substance, the “Cell confluence (estimated)” value (HD522B P0 cells; 1000 μg/ml 48 h) was “less than 2%”, the “time to observed cell death” value (HD522B P0 cells; 500 and 1000 μg/ml groups, from start of treatment) was ≤ 24 h and the Amylase/β-actin ([1]; 5 μg/ml 48 h) was 1.72E−03. It also gave a CK19/β-actin ([1]; 5 μg/ml 48 h) of 7.51E−01, a Delta/β-actin ([1]; 5 μg/ml 48 h) of 1.24E−04 and a GCK/β-actin ([1]; 5 μg/ml 48 h) of 2.20E−04. For the same substance, the GLUT2/β-actin ([1]; 5 μg/ml 48 h) was 4.36E−05, the Gcg/β-actin ([1]; 5 μg/ml 48 h) was 1.97E−02 and the Insulin/β-actin ([1]; 5 μg/ml 48 h) was 1.67E+00. For the same substance, the NCAM/β-actin ([1]; 5 μg/ml 48 h) was 1.51E−01, the Nestin/β-actin ([1]; 5 μg/ml 48 h) was 2.52E−03 and the NeuroD/β-actin ([1]; 5 μg/ml 48 h) was 1.26E−03. For the same substance, the Ngn3/β-actin ([1]; 5 μg/ml 48 h) was 2.45E−07, the Nkx2.2/β-actin ([1]; 5 μg/ml 48 h) was 7.84E−05 and the Nkx6.1/β-actin ([1]; 5 μg/ml 48 h) was 4.52E−04. It also gave a Notch1/β-actin ([1]; 5 μg/ml 48 h) of 8.14E−05, a P48/β-actin ([1]; 5 μg/ml 48 h) of 8.62E−03 and a PDX/β-actin ([1]; 5 μg/ml 48 h) of 7.02E−04. It also gave a Pax4/β-actin ([1]; 5 μg/ml 48 h) of 9.82E−06, an SST/β-actin ([1]; 5 μg/ml 48 h) of 5.88E−02 and an Amylase/β-actin ([1]; 25 μg/ml 48 h) of 6.09E−04. For the same substance, the CK19/β-actin ([1]; 25 μg/ml 48 h) was 1.06E+00, the Delta/β-actin ([1]; 25 μg/ml 48 h) was 1.08E−04 and the GCK/β-actin ([1]; 25 μg/ml 48 h) was 2.51E−04. The GLUT2/β-actin ([1]; 25 μg/ml 48 h) was 1.10E−04, the Gcg/β-actin ([1]; 25 μg/ml 48 h) was 4.56E−02 and the Insulin/β-actin ([1]; 25 μg/ml 48 h) was 3.40E+00. It also gave an NCAM/β-actin ([1]; 25 μg/ml 48 h) of 2.23E−01, a Nestin/β-actin ([1]; 25 μg/ml 48 h) of 1.24E−03 and a NeuroD/β-actin ([1]; 25 μg/ml 48 h) of 1.79E−03. The Ngn3/β-actin ([1]; 25 μg/ml 48 h) was 9.19E−07, the Nkx2.2/β-actin ([1]; 25 μg/ml 48 h) was 2.35E−04 and the Nkx6.1/β-actin ([1]; 25 μg/ml 48 h) was 6.45E−04. The Notch1/β-actin ([1]; 25 μg/ml 48 h) was 3.02E−04, the P48/β-actin ([1]; 25 μg/ml 48 h) was 1.12E−02 and the PDX/β-actin ([1]; 25 μg/ml 48 h) was 1.11E−03. For the same substance, the Pax4/β-actin ([1]; 25 μg/ml 48 h) was 1.24E−05, the SST/β-actin ([1]; 25 μg/ml 48 h) was 1.03E−01 and the Amylase/β-actin ([1]; 50 μg/ml 48 h) was 4.50E−04. It also gave a CK19/β-actin ([1]; 50 μg/ml 48 h) of 1.02E+00, a Delta/β-actin ([1]; 50 μg/ml 48 h) of 7.70E−05 and a GCK/β-actin ([1]; 50 μg/ml 48 h) of 3.01E−04. For the same substance, the GLUT2/β-actin ([1]; 50 μg/ml 48 h) was 2.17E−04, the Gcg/β-actin ([1]; 50 μg/ml 48 h) was 9.04E−02 and the Insulin/β-actin ([1]; 50 μg/ml 48 h) was 5.51E+00. For the same substance, the NCAM/β-actin ([1]; 50 μg/ml 48 h) was 1.51E−01, the Nestin/β-actin ([1]; 50 μg/ml 48 h) was 5.42E−04 and the NeuroD/β-actin ([1]; 50 μg/ml 48 h) was 3.10E−03. The Ngn3/β-actin ([1]; 50 μg/ml 48 h) was 2.13E−06, the Nkx2.2/β-actin ([1]; 50 μg/ml 48 h) was 4.03E−04 and the Nkx6.1/β-actin ([1]; 50 μg/ml 48 h) was 6.82E−04. The Notch1/β-actin ([1]; 50 μg/ml 48 h) was 4.91E−04, the P48/β-actin ([1]; 50 μg/ml 48 h) was 9.21E−03 and the PDX/β-actin ([1]; 50 μg/ml 48 h) was 1.28E−03. The Pax4/β-actin ([1]; 50 μg/ml 48 h) was 2.63E−05, the SST/β-actin ([1]; 50 μg/ml 48 h) was 1.84E−01 and the Amylase/β-actin ([1]; 100 μg/ml 48 h) was 5.09E−04. For the same substance, the CK19/β-actin ([1]; 100 μg/ml 48 h) was 9.98E−01, the Delta/β-actin ([1]; 100 μg/ml 48 h) was 1.16E−04 and the GCK/β-actin ([1]; 100 μg/ml 48 h) was 8.81E−04. It also gave a GLUT2/β-actin ([1]; 100 μg/ml 48 h) of 4.53E−04, a Gcg/β-actin ([1]; 100 μg/ml 48 h) of 1.85E−01 and an Insulin/β-actin ([1]; 100 μg/ml 48 h) of 1.06E+01. The NCAM/β-actin ([1]; 100 μg/ml 48 h) was 9.73E−02, the Nestin/β-actin ([1]; 100 μg/ml 48 h) was 3.48E−04 and the NeuroD/β-actin ([1]; 100 μg/ml 48 h) was 6.94E−03. For the same substance, the Ngn3/β-actin ([1]; 100 μg/ml 48 h) was 2.71E−06, the Nkx2.2/β-actin ([1]; 100 μg/ml 48 h) was 8.70E−04 and the Nkx6.1/β-actin ([1]; 100 μg/ml 48 h) was 9.19E−04. It also gave a Notch1/β-actin ([1]; 100 μg/ml 48 h) of 5.39E−04, a P48/β-actin ([1]; 100 μg/ml 48 h) of 7.93E−03 and a PDX/β-actin ([1]; 100 μg/ml 48 h) of 1.72E−03. The Pax4/β-actin ([1]; 100 μg/ml 48 h) was 5.31E−05, the SST/β-actin ([1]; 100 μg/ml 48 h) was 4.63E−01 and the Amylase/β-actin ([1]; 200 μg/ml 48 h) was 1.29E−03. The CK19/β-actin ([1]; 200 μg/ml 48 h) was 4.09E−01, the Delta/β-actin ([1]; 200 μg/ml 48 h) was 2.67E−04 and the GCK/β-actin ([1]; 200 μg/ml 48 h) was 2.74E−03. It also gave a GLUT2/β-actin ([1]; 200 μg/ml 48 h) of 1.33E−03, a Gcg/β-actin ([1]; 200 μg/ml 48 h) of 5.44E−01 and an Insulin/β-actin ([1]; 200 μg/ml 48 h) of 1.56E+01. For the same substance, the NCAM/β-actin ([1]; 200 μg/ml 48 h) was 6.17E−02, the Nestin/β-actin ([1]; 200 μg/ml 48 h) was 1.81E−03 and the NeuroD/β-actin ([1]; 200 μg/ml 48 h) was 1.76E−02. For the same substance, the Ngn3/β-actin ([1]; 200 μg/ml 48 h) was 2.37E−06, the Nkx2.2/β-actin ([1]; 200 μg/ml 48 h) was 3.31E−03 and the Nkx6.1/β-actin ([1]; 200 μg/ml 48 h) was 1.99E−03. For the same substance, the Notch1/β-actin ([1]; 200 μg/ml 48 h) was 1.60E−03, the P48/β-actin ([1]; 200 μg/ml 48 h) was 1.04E−02 and the PDX/β-actin ([1]; 200 μg/ml 48 h) was 6.90E−03. It also gave a Pax4/β-actin ([1]; 200 μg/ml 48 h) of 2.32E−04, an SST/β-actin ([1]; 200 μg/ml 48 h) of 1.37E+00 and an Amylase/β-actin ([1]; 500 μg/ml 48 h) of 7.63E−03. For the same substance, the CK19/β-actin ([1]; 500 μg/ml 48 h) was 1.03E−01, the Delta/β-actin ([1]; 500 μg/ml 48 h) was 1.27E−03 and the GCK/β-actin ([1]; 500 μg/ml 48 h) was 1.85E−02. It also gave a GLUT2/β-actin ([1]; 500 μg/ml 48 h) of 1.09E−02, a Gcg/β-actin ([1]; 500 μg/ml 48 h) of 3.80E+00 and an Insulin/β-actin ([1]; 500 μg/ml 48 h) of 8.21E+01. The NCAM/β-actin ([1]; 500 μg/ml 48 h) was 5.51E−02, the Nestin/β-actin ([1]; 500 μg/ml 48 h) was 3.37E−03 and the NeuroD/β-actin ([1]; 500 μg/ml 48 h) was 1.42E−01. The Ngn3/β-actin ([1]; 500 μg/ml 48 h) was 0.00E+00, the Nkx2.2/β-actin ([1]; 500 μg/ml 48 h) was 2.84E−02 and the Nkx6.1/β-actin ([1]; 500 μg/ml 48 h) was 1.28E−02. For the same substance, the Notch1/β-actin ([1]; 500 μg/ml 48 h) was 1.93E−03, the P48/β-actin ([1]; 500 μg/ml 48 h) was 2.43E−02 and the PDX/β-actin ([1]; 500 μg/ml 48 h) was 5.35E−02. It also gave a Pax4/β-actin ([1]; 500 μg/ml 48 h) of 1.50E−03, an SST/β-actin ([1]; 500 μg/ml 48 h) of 8.06E+00 and an Amylase/β-actin ([1]; 1000 μg/ml 48 h) of 1.24E−02. For the same substance, the CK19/β-actin ([1]; 1000 μg/ml 48 h) was 1.44E−02, the Delta/β-actin ([1]; 1000 μg/ml 48 h) was 4.18E−03 and the GCK/β-actin ([1]; 1000 μg/ml 48 h) was 2.39E−02. The GLUT2/β-actin ([1]; 1000 μg/ml 48 h) was 1.29E−02, the Gcg/β-actin ([1]; 1000 μg/ml 48 h) was 4.98E+00 and the Insulin/β-actin ([1]; 1000 μg/ml 48 h) was 2.02E+02. It also gave an NCAM/β-actin ([1]; 1000 μg/ml 48 h) of 3.31E−02, a Nestin/β-actin ([1]; 1000 μg/ml 48 h) of 0.00E+00 and a NeuroD/β-actin ([1]; 1000 μg/ml 48 h) of 1.72E−01. For the same substance, the Ngn3/β-actin ([1]; 1000 μg/ml 48 h) was 0.00E+00, the Nkx2.2/β-actin ([1]; 1000 μg/ml 48 h) was 6.69E−02 and the Nkx6.1/β-actin ([1]; 1000 μg/ml 48 h) was 1.37E−02. The Notch1/β-actin ([1]; 1000 μg/ml 48 h) was 3.99E−03, the P48/β-actin ([1]; 1000 μg/ml 48 h) was 5.95E−02 and the PDX/β-actin ([1]; 1000 μg/ml 48 h) was 4.87E−02. The Pax4/β-actin ([1]; 1000 μg/ml 48 h) was 7.64E−04 and the SST/β-actin ([1]; 1000 μg/ml 48 h) was 2.43E+01.
